Tests used:
[1] = system: full-thickness skin wounds; test: Collagen content and organisation (picrosirius red, bright-field and polarised light image analysis) in mouse excisional wound model; format: in vivo, Mice; conditions: wounds treated versus vehicle; Fig. 5
Method: Four full-thickness skin wounds were performed by cutting the folded skin on the back of the mice with a 7.5 mm x 3 mm elliptical biopsy punch (Elliptical Excisional Instrument, Acuderm Inc.). The skin on the back was raised and folded at the level of the vertebral column by using the thumb and the index finger. The folded skin was then placed on a wood tongue depressor with the animal laying on one side and two wounds were performed through the folded skin by using an elliptical biopsy punch (Elliptical Excisional Instrument, Acuderm Inc.), resulting in four wounds on the back skin: two on the right of the vertebral column and two on the left (Figure 1). […]
Collagen content and organisation were assessed as published by De Visscher et al. (2007, 2008). […] From this the collagen content and organisation can be measured according to the following method.
The total area (At) of the region of interest (ROI) and the area of the red stained material within that area (Ar) on the bright-field image. On the polarized light image, the area of the red illuminated bundles (Ab) is measured. The collagen density and organized collagen are calculated by the following formulae: Collagen density: (Ar/At) × 100 [formula] […]
Both are expressed as a percentage: collagen density as a percentage of the total area and organized collagen as a percentage of the collagen area.

[2] = system: full-thickness skin wounds; test: Scar index analysis (H&E histology) in mouse excisional wound model; format: in vivo, Mice; conditions: for scar index: topical, 5 daily treatments, harvest after 14 days
Method: The mouse model used here can be considered one of the simplest and standard murine models for investigating scar formation and wound healing.
Mice were weighed and then anaesthetized with 5% isoflurane in air for induction and then administered 2.5-3% of isoflurane in air for the remainder of the procedure. The animals were administered Tramal (Tramadol) intraperitoneally for analgesia at a 0.1 mg/kg dose. Before surgery the back of the mice was shaved and disinfected with isobetadine soap, rinsed with water and then swabbed with iodium alcohol.
Four full-thickness skin wounds were performed by cutting the folded skin on the back of the mice with a 7.5 mm x 3 mm elliptical biopsy punch (Elliptical Excisional Instrument, Acuderm Inc.). The skin on the back was raised and folded at the level of the vertebral column by using the thumb and the index finger. The folded skin was then placed on a wood tongue depressor with the animal laying on one side and two wounds were performed through the folded skin by using an elliptical biopsy punch (Elliptical Excisional Instrument, Acuderm Inc.), resulting in four wounds on the back skin: two on the right of the vertebral column and two on the left (Figure 1). The epidermis, the dermis and the fat tissue in the wound was carefully removed without touching other tissues. The wounds were then immediately treated with topical application of Composition 1 (Tv - vehicle), Composition 2 (T1 - 1 µM Lipoxin A4), or Composition 3 (T2 - 100 µM Lipoxin A4). The position of the wounds that were treated with active agent (T1 or T2) or treated with vehicle (Tv) was randomised. The wound site was then covered with OP-Film (Somed International, the Netherlands). The borders were then fixed with cyanoacrylate glue (Loctite).
The mice were allowed to recover from the surgical preparation in a clean cage with fresh bedding and under a heating lamp. To avoid possible contamination the mice were placed in individual cages containing a cellulose bed that was changed every 24 hours. Single caging avoids other mice from detaching the adhesive patches.
The treatment was repeated at the day 1, 2, 3 and 4 post-surgery for a total of 5 treatments in the first 5 days of healing. At each time point the mice were briefly anaesthetized with isoflurane and a new dose of ointment was injected through the film onto the wound, after which the animal was left to recover. At day 5 all films were removed.
After 14 days the mice were sacrificed under isoflurane anaesthesia by cervical dislocation to harvest the regenerated tissue. Skin samples were taken. The back of the mouse was carefully shaved paying careful attention to not touch the wound area. […]
The extent of scarring was measured in accordance with the procedure set out by Khorasani et al. (2011). […]

For CCCCC[C@H](O)/C=C/C=C\C=C\C=C\[C@@H](O)[C@@H](O)CCCC(=O)O [Lipoxin A4], the “Collagen content (in words, versus vehicle)” value [1] was “Lower collagen content was observed in wounds treated with vehicle”, the “Collagen organisation (in words, versus vehicle)” value [1] was “increased values” and the scar index ([2]; 1 µM Lipoxin A4 treatment, Figure 4) was 905 µm. The scar index ([2]; 100 µM Lipoxin A4 treatment, Figure 4) was 511 µm, the “lower scarring than wounds treated with Control (quantitative scar index analysis)” value ([2]; Figure 3, n=5, p<0.008) was 49% and the scar index ([2]; Pooled Lipoxin A4 treatment, Figure 3, p=0.008 vs vehicle (Vehicle 1478 ± 334)) was 748 µm.
